These results are taken from patent US9790207B2, “Pan-genomic inhibitors of NS5A protein encoded by HCV, pharmaceutical compositions, intermediates for inhibitor synthesis, and their synthesis and application methods” (priority 2015, dated 2017).

Where a name gives a salt, the structure may show the parent alone. Read-outs that look alike come from different tables or passages of the source.

One may read the EC50 as the concentration needed to bring the measured effect to its halfway point. As usually defined, the bioavailability is dose-corrected exposure relative to a reference, in per cent. A low value points to little systemic uptake.

One series has as its system HCV gT3a replicon. As to the kind of experiment: HCV replicon assay, gT3a. Format: cell-based, Hepatitis C virus (HCV). The protocol:
(§1) The HCV replicon assay was used to determine the antiviral activity of compounds of general formula 2 (test compounds). The test cell line used in the HCV Replicon Assay was the human hepatoma cell line Huh7 incorporating the HCV replicons synthesized by an outside vendor.
(§2) 96-well plates were seeded with cells at a density of 7.5×10^3 cells per well in 50 μl of assay media. The compound stock solution was made up freshly in an assay medium (DMEM 1×, Cellgro; cat. #10-013-CV) as a 2× stock. A total of 11 serial 3-fold dilutions of test compounds were prepared from the 2× stock in the assay media ranging from 20 nM-0.2 pM final concentrations. At least 4 hours after seeding the cells, compound treatment was initiated by adding 50 μl of compound dilution to the plates. The final concentrations of compound therefore ranged from 10 nM to 0.1 pM when diluted 1:1 in culture media. The final DMSO concentration was 0.5%. Cells and inhibitors were incubated for 3 days at 37° C./5% CO2. The media was removed from the plates by gentle tapping. The cells were fixed with 100 μl 1:1 acetone:methanol for 1 minute, washed three times with PBS buffer, and then blocked with 150 μl/well 10% Fetal Bovine Serum (FBS) in PBS for 1 hour at room temperature. The cells were then washed three times with PBS buffer and incubated with 100 μl/well anti-hepatitis C core mAb (Affinity BioReagents; cat. # MA1-080, 1 mg/ml stock diluted 1:4,000 in 10% FBS-PBS) for 2 hours at 37° C. Then, the cells were washed three times with PBS and incubated with 100 μl/well HRP-Goat Anti-Mouse antibody (diluted 1:3.500 in 10% FBS-PBS) for 1 hour at 37° C. The cells were then washed three times with PBS and developed with an OPD solution, 100 μl/well (1 OPD tablet+12 ml citrate/phosphate buffer+5 μl 30% H2O2 per plate), for 30 minutes in the dark at room temperature. The reaction was stopped with 2N H2SO4 (100 μl/well), and the absorbance was measured at A490 X on a Victor^3 V 1420 multilabel counter (Perkin Elmer).
In general terms: A replicon is a self-replicating genome or part of one, used to study replication in cells.

Another series deals with HCV gT4a replicon. As to the kind of experiment: HCV replicon assay, gT4a. Format: cell-based, Hepatitis C virus (HCV). The note with it: Hepatitis C virus, GT4A, Huh-7, read-out: gT4a, EC50 (pM) mean. The method, then: as §1, §2
The next series concerns HCV gT1a replicon. In words: HCV replicon assay, gT1a. Format: cell-based, Hepatitis C virus (HCV). Particulars: Hepatitis C virus, GT1A, Huh-7; Huh7 replicon cells; mean. The method, then:
as §1, §2

Series [1] in a line: Cytotoxicity, cell viability by ATPLite Kit. Format: cell-based, human. The note with it: human, Huh7 cells (human hepatoma cell line), 10% FBS, maximal inhibition, read-out: Cytotox gT1b 10% FBS max. inh. The method, then: The cytotoxicity of the test compounds was studied in parallel using the same cell line, Huh7. Cell viability was determined using the ATPLite Kit (Perkin-Elmer, Boston, USA), according to manufacturer's instructions. 96-well black/transparent bottom plates were seeded with cells at a density of 7.5×10^3 cells per well in 50 μl medium. After 18 hours, compound treatment was initiated by adding 50 μl of compound dilution into the plates. Each compound dilution was tested in triplicates. The cells and inhibitors were then incubated for 96 hours at 37° C./5% CO2. The plates were washed twice with PBS (0.2 ml/well), and then lysed by adding lysis buffer, 0.05 ml/well (all reagents were included with the ATPLite Kit). After rocking for 5 min on a rocking platform, substrate buffer was added (0.05 ml/well). After additional 5-min incubation, the plates were kept in dark for 10 min, and the luminescence was read using TopCount NXT (Packard, Perkin Elmer). CC50 values for all test compounds were determined using XLfit 4.1 software (Table 2).

A short description of series [2]: Bioavailability of new inhibitors in rats. Particulars: rat, in vivo.
The next series deals with HCV gT5a replicon. In words: HCV replicon assay, gT5a. The class given is cell-based, Hepatitis C virus (HCV). Particulars: Hepatitis C virus, GT5A, Huh-7, read-out: gT5a, EC50 (pM) mean. The protocol: as §1, §2
The subject of the next series is HCV gT2a replicon. As to the kind of experiment: HCV replicon assay, gT2a. Format: cell-based, Hepatitis C virus (HCV). The note with it: Hepatitis C virus, GT2A, Huh-7; Huh7 replicon cells; mean. The protocol:
as §1, §2

Another series relates to HCV gT1b replicon. In words: HCV replicon assay, gT1b. The class given is cell-based, Hepatitis C virus (HCV). Particulars: Hepatitis C virus, GT1B, Huh-7, Huh7 replicon cells, mean value. The protocol: as §1, §2
The next series has as its system HCV Genotype NS5A GT4a. The note with it: known inhibitors, literature values; cited from earlier work.
Another series relates to HCV Genotype NS5A GT1b. The note with it: known inhibitors, literature values; cited from earlier work.
A further series deals with HCV Genotype NS5A GT3a. The note with it: known inhibitors, literature values, cited from earlier work.
For a further series, the system named is HCV Genotype NS5A GT1a. Particulars: known inhibitors, literature values; cited from earlier work.
For series [3] the following is noted: known inhibitors, literature values; cited from earlier work.
A further series has as its system HCV Genotype NS5A GT5a. Particulars: known inhibitors, literature values; cited from earlier work.
The test system of another series is HCV Genotype NS5A GT2a. The note with it: known inhibitors, literature values, cited from earlier work.
Setting [4] is: Hepatitis C virus, GT3A, Huh-7, Huh7 replicon cells, mean, read-out: gT3a, EC50 (pM) mean.
Setting [5] is: 10% FBS, read-out: gT1b 10% FBS, EC50 (pM) mean.
[6] abbreviates: 40% NHS, read-out: gT1b 40% NHS, EC50 (pM) mean.

Consider `COC(=O)N[C@H](C(=O)N1CCC[C@H]1c1ncc(-c2ccc(C#CC#Cc3cnc([C@@H]4CCCN4C(=O)[C@H](NC(=O)OC)c4ccccc4)[nH]3)c(-c3ccccc3)c2)[nH]1)C(C)C.Cl.Cl` [2(7)•2HCl, [(S)-1-((S)-2-{5-[6-(4-{2-[(S)-1-((R)-2-Methoxycarbonylamino-2-phenyl-acetyl)-pyrrolidin-2-yl]-3H-imidazol-4-yl}-buta-1,3-diynyl)-biphenyl-3-yl]-1H-imidazol-2-yl}-pyrrolidine-1-carbonyl)-2-methyl-propyl]-carbamic acid methyl ester dihydrochloride], for which the EC50 came out at 23 pM in the series with HCV gT3a replicon (setting [4]); 8.5 pM in the series on HCV gT4a replicon; 22.5 pM in the series with HCV gT1a replicon; 19.8 pM in the series on HCV gT5a replicon; 5.9 pM with HCV gT2a replicon; 1.92 pM with HCV gT1b replicon (setting [5]). Further, in the series on HCV gT1b replicon (setting [6]), the EC50 came to 12.6 pM. Also, the inhibition at 96 h in series [1] was 32%. Moreover, the bioavailability in [2] amounted to 31%.
Take `COC(=O)N[C@H](C(=O)N1CCC[C@H]1c1ncc(-c2ccc(-c3ccc(-c4cnc([C@@H]5CCCN5C(=O)[C@H](NC(=O)OC)c5ccccc5)[nH]4)cc3)c(Sc3ccccc3)c2)[nH]1)C(C)C` [2(24)•2HCl, ((S)-1-{(S)-2-[5-(4′-{2-[(S)-1-((R)-2-Methoxycarbonylamino-2-phenyl-acetyl)-pyrrolidin-2-yl]-3H-imidazol-4-yl}-2-phenylsulfanyl-biphenyl-4-yl)-1H-imidazol-2-yl]-pyrrolidine-1-carbonyl}-2-methyl-propyl)-carbamic acid methyl ester dihydrochloride]: the EC50 in the series on HCV gT3a replicon (setting [4]) came to 28.5 pM; in the series with HCV gT4a replicon it was 8.3 pM; in the series with HCV gT1a replicon, 557 pM; with HCV gT5a replicon, 21.6 pM; with HCV gT2a replicon it was 4 pM; in the series on HCV gT1b replicon (setting [5]), 1.33 pM. In the series on HCV gT1b replicon (setting [6]), the EC50 was 8.02 pM. Further, the inhibition at 96 h in series [1] was found to be 42%.
With `COC(=O)N[C@H](C(=O)N1CCC[C@H]1c1ncc(-c2ccc(-c3ccc(-c4cnc([C@@H]5CCCN5C(=O)[C@H](NC(=O)OC)c5ccccc5)[nH]4)cc3)c(N(C)c3ccccc3)c2)[nH]1)C(C)C` [2(25)•2HCl, [(S)-1-((S)-2-{5-[4′-{2-[(S)-1-((R)-2-Methoxycarbonylamino-2-phenyl-acetyl)-pyrrolidin-2-yl]-3H-imidazol-4-yl}-2-(methyl-phenyl-amino)-biphenyl-4-yl]-1H-imidazol-2-yl}-pyrrolidine-1-carbonyl)-2-methyl-propyl]-carbamic acid methyl ester trihydrochloride], the EC50 turned out to be 24.2 pM in the series on HCV gT3a replicon (setting [4]); 13.9 pM in the series on HCV gT4a replicon; 345 pM in the series on HCV gT1a replicon; 43.2 pM in the series with HCV gT5a replicon; 5.5 pM in the series with HCV gT2a replicon; 1.72 pM in the series on HCV gT1b replicon (setting [5]). In addition, the EC50 in the series with HCV gT1b replicon (setting [6]) was 11.5 pM. The inhibition at 96 h in [1] is 18%.
As for `COC(=O)N[C@H](C(=O)N1CCC[C@H]1c1ncc(-c2cc(F)c(-c3ccc(-c4cnc([C@@H]5CCCN5C(=O)[C@H](NC(=O)OC)c5ccccc5)[nH]4)cc3)c(-c3ccccc3)c2)[nH]1)C(C)C` [2(26)•2HCl, ((S)-1-{(S)-2-[5-(6′-Fluoro-4-{2-[(S)-1-((R)-2-methoxycarbonylamino-2-phenyl-acetyl)-pyrrolidin-2-yl]-3H-imidazol-4-yl}-[1,1′;2′,1″]terphenyl-4′-yl)-1H-imidazol-2-yl]-pyrrolidine-1-carbonyl}-2-methyl-propyl)-carbamic acid methyl ester dihydrochloride], the EC50 with HCV gT3a replicon (Hepatitis C virus, GT3A, Huh-7, read-out: gT3a, EC50 (pM) mean, Huh7 replicon cells) stood at 9.2 pM; in the series on HCV gT3a replicon (Huh7 replicon cells, mean, dihydrochloride, read-out: gT3a, EC50 (pM) mean), 9.8 pM; with HCV gT4a replicon, 7.9 pM; with HCV gT1a replicon it was 30.3 pM; in the series on HCV gT5a replicon, 14.3 pM; in the series with HCV gT2a replicon it was 3.1 pM. For the same compound, the figures for the EC50 with HCV gT1b replicon (setting [5]) and with HCV gT1b replicon (setting [6]) were 3.2 pM and 14.5 pM, respectively. For the same compound, in [1], the inhibition at 96 h is 39%.
Take `COC(=O)N[C@H](C(=O)N1CCC[C@H]1c1ncc(-c2cc(C)c(-c3ccc(-c4cnc([C@@H]5CCCN5C(=O)[C@H](NC(=O)OC)c5ccccc5)[nH]4)cc3)c(-c3ccccc3)c2)[nH]1)C(C)C` [2(27)•2HCl, ((S)-1-{(S)-2-[5-(4-{2-[(S)-1-((R)-2-Methoxycarbonylamino-2-phenyl-acetyl)-pyrrolidin-2-yl]-3H-imidazol-4-yl}-6′-methyl-[1,1′;2′,1″]terphenyl-4′-yl)-1H-imidazol-2-yl]-pyrrolidine-1-carbonyl}-2-methyl-propyl)-carbamic acid methyl ester dihydrochloride]: the EC50 with HCV gT3a replicon (setting [4]) came out at 25.2 pM; in the series on HCV gT4a replicon it was 12.3 pM; with HCV gT1a replicon, 203 pM; in the series on HCV gT5a replicon, 25.8 pM; in the series on HCV gT2a replicon, 7.9 pM; in the series with HCV gT1b replicon (setting [5]) it was 5.1 pM. For the same compound, the EC50 in the series with HCV gT1b replicon (setting [6]) stood at 14.5 pM. Also, the inhibition at 96 h in [1] turned out to be 31%.
On to `COC(=O)N[C@H](C(=O)N1CCC[C@H]1c1ncc(C#CC#Cc2ccc(-c3cnc([C@@H]4CCCN4C(=O)[C@@H](NC(=O)OC)C(C)C)[nH]3)cc2)[nH]1)C(C)C` [AV-4025, Hepavivir], for which the EC50 is 12 pM with HCV Genotype NS5A GT4a; 3.4 pM in the series on HCV Genotype NS5A GT1b; 59 pM with HCV Genotype NS5A GT1a; 172 pM in the series with HCV Genotype NS5A GT5a; 51 pM in the series on HCV Genotype NS5A GT2a. Also, in the series on HCV Genotype NS5A GT3a, the “EC50, pM HCV Genotype NS5A GT3a” value was “insufficient activities”. Also, the “Bioavailability in rat, F, %” value in series [3] is 65.0%. For the same compound, the “EC50, pM HCV Genotype NS5A GT5a” value in the series on HCV Genotype NS5A GT5a was “insufficient activities”.
As to `COC(=O)N[C@H](C(=O)N1CC2(CC2)C[C@H]1c1nc(-c2ccc3c(c2)C(F)(F)c2cc(-c4ccc5[nH]c([C@@H]6[C@H]7CC[C@H](C7)N6C(=O)[C@@H](NC(=O)OC)C(C)C)nc5c4)ccc2-3)c[nH]1)C(C)C` [Ledipasvir], the EC50 with HCV Genotype NS5A GT4a was 7 pM; in the series with HCV Genotype NS5A GT1b, 5 pM; in the series on HCV Genotype NS5A GT3a, 10.1 pM; in the series with HCV Genotype NS5A GT3a (listed as Ledipasvir (GS-5885)) it was 10100 pM; with HCV Genotype NS5A GT1a it was 31 pM; with HCV Genotype NS5A GT2a, 20.8 pM. In the series with HCV Genotype NS5A GT2a (listed as Ledipasvir (GS-5885)), the EC50 was 20800 pM. In addition, the “EC50, pM HCV Genotype NS5A GT3a” value in the series on HCV Genotype NS5A GT3a was “insufficient activities”. Besides, in the series with HCV Genotype NS5A GT5a, the “EC50, pM HCV Genotype NS5A GT5a” value is “insufficient activities”.
As for `COC(=O)N[C@H](C(=O)N1CCC[C@H]1C(=O)Nc1ccc([C@@H]2CC[C@@H](c3ccc(NC(=O)[C@@H]4CCCN4C(=O)[C@@H](NC(=O)OC)C(C)C)cc3)N2c2ccc(C(C)(C)C)cc2)cc1)C(C)C` [Ombitasvir], the EC50 was 1.7 pM in the series with HCV Genotype NS5A GT4a; 5 pM in the series on HCV Genotype NS5A GT1b; 19.3 pM in the series on HCV Genotype NS5A GT3a; 14.1 pM in the series with HCV Genotype NS5A GT1a; 4.3 pM in the series with HCV Genotype NS5A GT5a; 12.4 pM in the series with HCV Genotype NS5A GT2a.
